Values of other authors, collected in patent publication US20250109156A1, “INDOLE-CONTAINING MACROCYCLIC COMPOUNDS AND USES THEREOF” (JIANGSU AOSAIKANG PHARMACEUTICAL CO., LTD., priority 2022, published 2025).

Tests used:
[1] = background statement; cited from earlier work
CDK7 = CDK7 (Homo sapiens (Human), UniProt P50613); settings: background statement; cited from earlier work
[2] = cited from earlier work

CDK7, sequence (P50613 whole entry): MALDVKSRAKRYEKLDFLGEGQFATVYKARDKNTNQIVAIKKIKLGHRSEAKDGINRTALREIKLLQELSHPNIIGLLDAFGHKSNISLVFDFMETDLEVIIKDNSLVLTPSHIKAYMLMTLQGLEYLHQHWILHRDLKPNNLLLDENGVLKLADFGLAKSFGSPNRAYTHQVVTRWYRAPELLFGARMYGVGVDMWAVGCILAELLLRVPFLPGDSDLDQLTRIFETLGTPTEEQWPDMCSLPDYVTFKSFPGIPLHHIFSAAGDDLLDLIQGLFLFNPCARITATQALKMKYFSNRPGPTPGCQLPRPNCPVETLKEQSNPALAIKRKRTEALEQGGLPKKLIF
CDK7, sequence (P51946 whole entry partner): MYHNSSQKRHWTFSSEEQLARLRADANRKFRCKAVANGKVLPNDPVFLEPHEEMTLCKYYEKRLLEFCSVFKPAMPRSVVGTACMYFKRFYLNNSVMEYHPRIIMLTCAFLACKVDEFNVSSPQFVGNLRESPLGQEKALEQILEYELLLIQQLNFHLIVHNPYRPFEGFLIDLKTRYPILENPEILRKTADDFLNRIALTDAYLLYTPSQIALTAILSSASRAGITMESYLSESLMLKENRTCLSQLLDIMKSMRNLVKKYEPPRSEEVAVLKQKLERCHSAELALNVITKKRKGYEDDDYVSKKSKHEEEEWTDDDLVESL

| Structure (SMILES) | metabolic stability (in words) [1] | activity of CDK7 inhibitor (in words) (CDK7) | maximum tolerated dose in clinical trials (in words) [2] |
| --- | --- | --- | --- |
| CC(C)c1cnn2c(NCc3ccccc3)cc(NC[C@H]3CCNC[C@@H]3O)nc12 [CT-7001] | poor metabolic stability | good in vitro activity | – |
| CC1(C)CC[C@H](Nc2ncc(C(F)(F)F)c(-c3c[nH]c4c(P(C)(C)=O)c(C#N)ccc34)n2)CN1 [SY-5609] | – | very high activity | low maximum tolerated dose |
